Data taken from patent publication US20150239831A1, “INHIBITORS OF CENTRAL NERVOUS SYSTEM VASOACTIVE INHIBITORY PEPTIDE RECEPTOR 2” (The Trustees Of Columbia University In The City Of New York, priority 2012, published 2015).

Experiments:
Type in all cases: cell-based
Parameters in all cases: expressed in transfected cells; host or cells: HEK293 cells transfected with VIPR2 in pCDNA3.1 (as described)
VIPR2 [1] = target: T1, VIPR2 (Homo sapiens, UniProt P41587); test: % Activity: inhibition of VIP-induced cAMP elevation and β-arrestin recruitment (Table 2)
T1 sequence (P41587 24-438): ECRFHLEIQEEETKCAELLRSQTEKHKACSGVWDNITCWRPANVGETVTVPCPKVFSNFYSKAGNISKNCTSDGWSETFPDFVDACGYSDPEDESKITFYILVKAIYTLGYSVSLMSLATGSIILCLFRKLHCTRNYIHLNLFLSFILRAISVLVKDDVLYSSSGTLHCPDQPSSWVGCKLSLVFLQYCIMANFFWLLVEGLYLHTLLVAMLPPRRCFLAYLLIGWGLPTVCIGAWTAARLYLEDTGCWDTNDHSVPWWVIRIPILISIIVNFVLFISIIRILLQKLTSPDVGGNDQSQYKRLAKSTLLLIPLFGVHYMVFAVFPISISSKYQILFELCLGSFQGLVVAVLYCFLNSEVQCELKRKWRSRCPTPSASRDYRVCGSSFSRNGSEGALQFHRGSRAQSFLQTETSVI
Summary of the method: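 cAMP: HEK293 stably expressing hVIPR2, inhibitor plus VIP 30 min, cAMP by HTRF (665/620 nm ratio ×10,000). β-arrestin: HEK293 with β-arrestin2-β-gal-EA, transiently transfected with VIPR2-ProLink; inhibitor 2 h at 37° C, enzyme complementation read by luminescence.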

VIPR2 [2] = target: T1, VIPR2; test: Inhibition of VIP-induced β-arrestin recruitment (% Activity Arrestin)
Summary of the method: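 HEK293 cells stably expressing β-arrestin2–β-gal EA, transiently transfected with ProLink-tagged hVIPR2, plated overnight; inhibitor added for 2 h at 37 °C, 5% CO2. Receptor–arrestin complementation read by chemiluminescence after 5 min–1 h at room temperature; inhibition of VIP-induced recruitment reported as % activity.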

VIPR2 [3] = target: T1, VIPR2; test: Inhibition of VIP-induced cAMP elevation (% Activity cAMP)
Summary of the method: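 HEK293 cells stably transfected with human VIPR2 were incubated with inhibitor and VIP for 30 min, then cAMP was detected by HTRF after at least 1 h at room temperature. The 665/620 nm ratio ×10,000 was calculated.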

Row | SMILES | % Activity (VIPR2 [1]) [%] | inhibition at 0.5 µM (VIPR2 [2]; Batch 1) [%] | inhibition at 1 µM (VIPR2 [2]; Batch 1) [%] | inhibition at 5 µM (VIPR2 [2]; Batch 1) [%] | inhibition at 0.5 µM (VIPR2 [3]; Batch 1) [%] | inhibition at 1 µM (VIPR2 [3]; Batch 1) [%] | inhibition at 5 µM (VIPR2 [3]; Batch 1) [%] | inhibition at 0.5 µM (VIPR2 [2]; Batch 2) [%] | inhibition at 1 µM (VIPR2 [2]; Batch 2) [%] | inhibition at 5 µM (VIPR2 [2]; Batch 2) [%] | inhibition at 0.5 µM (VIPR2 [3]; Batch 2) [%] | inhibition at 1 µM (VIPR2 [3]; Batch 2) [%] | inhibition at 5 µM (VIPR2 [3]; Batch 2) [%] | inhibition at 0.5 µM (VIPR2 [2]; Batch 3) [%] | inhibition at 1 µM (VIPR2 [2]; Batch 3) [%] | inhibition at 5 µM (VIPR2 [2]; Batch 3) [%] | inhibition at 0.5 µM (VIPR2 [3]; Batch 3) [%] | inhibition at 1 µM (VIPR2 [3]; Batch 3) [%] | inhibition at 5 µM (VIPR2 [3]; Batch 3) [%]
1 | C=Cc1ccc(C(=O)NC[C@@H](O)C[C@@H](Cc2ccccc2)C(=O)N[C@H]2c3ccccc3C[C@H]2O)cc1 [Compound A24] | 12.8 | 2.3 | 47.5 | 1.8 | 16.1 | 16.5 | 23.8 | – | – | – | – | – | – | – | – | – | – | – | –
2 | O=C(CCCCl)NC[C@@H](O)C[C@@H](Cc1ccccc1)C(=O)N[C@H]1c2ccccc2C[C@H]1O [Compound A22] | 18.5 | 19.2 | 24.3 | 21.1 | 16.4 | 18.2 | 15.9 | – | – | – | – | – | – | – | – | – | – | – | –
3 | CC(C)CS(=O)(=O)NC[C@@H](O)C[C@@H](Cc1ccccc1)C(=O)N[C@H]1c2ccccc2C[C@H]1O [Compound A11] | 21.1 | 7.1 | 3.2 | 20 | 13.3 | 15.6 | 22.2 | – | – | – | – | – | – | – | – | – | – | – | –
4 | O=C(NC1CCCC1)c1ccc(S(=O)(=O)NC[C@@H](O)C[C@@H](Cc2ccccc2)C(=O)N[C@H]2c3ccccc3C[C@H]2O)cc1 [Compound X097] | 15.95 | – | – | – | – | – | – | – | – | – | – | – | – | 3.9 | 0.5 | 0.1 | 15.2 | 19.6 | 31.8
5 | CNC(=O)[C@H](Cc1ccccc1)C[C@H](O)CNS(=O)(=O)c1ccc([N+](=O)[O-])cc1 [Compound B20] | 6.25 | – | – | – | – | – | – | 6.9 | 4 | 3.2 | 7 | 8.3 | 9.3 | – | – | – | – | – | –
6 | O=C([C@H](Cc1ccccc1)C[C@H](O)CNS(=O)(=O)c1ccc([N+](=O)[O-])cc1)N1CCC(CO)CC1 [Compound B19] | 0.85 | – | – | – | – | – | – | -8.4 | -17.8 | -4.5 | 2.1 | 4.4 | 6.2 | – | – | – | – | – | –
7 | COc1ccc(S(=O)(=O)NC[C@@H](O)C[C@@H](Cc2ccccc2)C(=O)N[C@H]2c3ccccc3C[C@H]2O)cc1OC [S] | 30.1 | 10.5 | 23.2 | 32 | 21.1 | 20.4 | 28.2 | – | – | – | – | – | – | – | – | – | – | – | –
8 | O=C(NC[C@@H](O)C[C@@H](Cc1ccccc1)C(=O)N[C@H]1c2ccccc2C[C@H]1O)c1ccc([N+](=O)[O-])cc1 [Compound A25] | 18.75 | -0.5 | 18.6 | 16.4 | 14 | 22.3 | 21.1 | – | – | – | – | – | – | – | – | – | – | – | –
9 | O=C(NC1CCCC1)[C@@H](Cc1ccccc1)C[C@H](O)CNS(=O)(=O)c1ccc([N+](=O)[O-])cc1 [Compound B1B] | 0.5 | – | – | – | – | – | – | -5.7 | -6.1 | 1.3 | -7.5 | -2.5 | -0.3 | – | – | – | – | – | –

Next, values leading:

Row | % Activity (VIPR2 [1]) [%] | inhibition at 0.5 µM (VIPR2 [2]; Batch 1) [%] | inhibition at 1 µM (VIPR2 [2]; Batch 1) [%] | inhibition at 5 µM (VIPR2 [2]; Batch 1) [%] | inhibition at 0.5 µM (VIPR2 [3]; Batch 1) [%] | inhibition at 1 µM (VIPR2 [3]; Batch 1) [%] | inhibition at 5 µM (VIPR2 [3]; Batch 1) [%] | inhibition at 0.5 µM (VIPR2 [2]; Batch 2) [%] | inhibition at 1 µM (VIPR2 [2]; Batch 2) [%] | inhibition at 5 µM (VIPR2 [2]; Batch 2) [%] | inhibition at 0.5 µM (VIPR2 [3]; Batch 2) [%] | inhibition at 1 µM (VIPR2 [3]; Batch 2) [%] | inhibition at 5 µM (VIPR2 [3]; Batch 2) [%] | inhibition at 0.5 µM (VIPR2 [2]; Batch 3) [%] | inhibition at 1 µM (VIPR2 [2]; Batch 3) [%] | inhibition at 5 µM (VIPR2 [2]; Batch 3) [%] | inhibition at 0.5 µM (VIPR2 [3]; Batch 3) [%] | inhibition at 1 µM (VIPR2 [3]; Batch 3) [%] | inhibition at 5 µM (VIPR2 [3]; Batch 3) [%] | SMILES
10 | 9.0000 | – | – | – | – | – | – | 4.8 | 6.9 | 0.6 | 5.1 | 6.6 | 17.4 | – | – | – | – | – | – | O=C(NC1CCCc2ccccc21)[C@@H](Cc1ccccc1)C[C@H](O)CNS(=O)(=O)c1ccc([N+](=O)[O-])cc1 (stereo partly drawn) [Compound B13B]
11 | 40.15 | 5.3 | 28.3 | 52 | 28.6 | 22.3 | 28.3 | – | – | – | – | – | – | – | – | – | – | – | – | O=C(N[C@H]1c2ccccc2C[C@H]1O)[C@H](Cc1ccccc1)C[C@H](O)CNS(=O)(=O)c1ccccc1F [T]
12 | −10.45 | – | – | – | – | – | – | -6.5 | -16.6 | -23 | 6.7 | 3.6 | 2.1 | – | – | – | – | – | – | NC(=O)[C@H](Cc1ccccc1)C[C@H](O)CNS(=O)(=O)c1ccc([N+](=O)[O-])cc1 [Compound B12A]
13 | 12.75 | -3.8 | 6.8 | 5.2 | 17.4 | 18.5 | 20.3 | – | – | – | – | – | – | – | – | – | – | – | – | O=C(NC[C@@H](O)C[C@@H](Cc1ccccc1)C(=O)N[C@H]1c2ccccc2C[C@H]1O)c1cccc(Br)c1 [Q]
14 | −5.2 | – | – | – | – | – | – | 23.3 | 3 | -10.3 | -7.9 | 4.4 | -0.1 | – | – | – | – | – | – | C[C@H](CC(C)(C)C)NC(=O)[C@H](Cc1ccccc1)C[C@H](O)CNS(=O)(=O)c1ccc([N+](=O)[O-])cc1 [Compound B10A]
15 | 7.75 | 9.9 | 15.2 | -3.1 | 15.5 | 19 | 18.6 | – | – | – | – | – | – | – | – | – | – | – | – | O=C(CCN1C(=O)C=CC1=O)NC[C@@H](O)C[C@@H](Cc1ccccc1)C(=O)N[C@H]1c2ccccc2C[C@H]1O [Compound A21]
16 | 1.65 | – | – | – | – | – | – | 7 | -13 | 0.3 | -5.8 | 10.4 | 3 | – | – | – | – | – | – | O=C([C@@H](Cc1ccccc1)C[C@H](O)CNS(=O)(=O)c1ccc([N+](=O)[O-])cc1)N1CCOCC1 [Compound B9B]
17 | 5.45 | – | – | – | – | – | – | -6.4 | 4.4 | 6.5 | 6.3 | 7.1 | 4.4 | – | – | – | – | – | – | O=C(NN1CCCCC1)[C@H](Cc1ccccc1)C[C@H](O)CNS(=O)(=O)c1ccc([N+](=O)[O-])cc1 [Compound B6A]
18 | −1.2 | – | – | – | – | – | – | 13.4 | -1.3 | 0.4 | -5 | -2.5 | -2.8 | – | – | – | – | – | – | CC1CCC(NC(=O)[C@H](Cc2ccccc2)C[C@H](O)CNS(=O)(=O)c2ccc([N+](=O)[O-])cc2)CC1 (stereo partly drawn) [Compound B8A]
19 | 15.05 | – | – | – | – | – | – | – | – | – | – | – | – | 6.4 | -0.3 | -4.2 | -2.4 | 23 | 34.3 | O=C(Nc1ccc(S(=O)(=O)NC[C@@H](O)C[C@@H](Cc2ccccc2)C(=O)N[C@H]2c3ccccc3C[C@H]2O)cc1)C1CC1 [Compound X093]
20 | 13.85 | – | – | – | – | – | – | 3.3 | 7.4 | 10.2 | 8.8 | 12.4 | 17.5 | – | – | – | – | – | – | O=C(NC1CCCc2ccccc21)[C@H](Cc1ccccc1)C[C@H](O)CNS(=O)(=O)c1ccc([N+](=O)[O-])cc1 (stereo partly drawn) [Compound B13A]
21 | 9.55 | – | – | – | – | – | – | -5.6 | 1.9 | 13.8 | 0.9 | 5.1 | 5.3 | – | – | – | – | – | – | CCCCNC(=O)[C@H](Cc1ccccc1)C[C@H](O)CNS(=O)(=O)c1ccc([N+](=O)[O-])cc1 [Compound B7A]
